# Columns and labels:
# [1] = test system: Spring Argentine canola (Brassica napus, BRSNS); assay: Example 3 field trials (Canada), postemergence crop safety, visual phytotoxicity
# [2] = test system: winter oilseed rape (Brassica napus, BRSNW); assay: Example 4 field trials (Europe), postemergence crop safety, visual phytotoxicity; conditions: for Mean % Visual Injury / Mean % Visual Deformation: alone or mixed
structure (smiles),measurement,setting,value
"COC(=O)c1nc(-c2ccc(Cl)c(OC)c2F)cc(N)c1Cl [Halauxifen-methyl, methyl 4-amino-3-chloro-6-(4-chloro-2-fluoro-3-methoxyphenyl)-2-pyridineccarboxylate]",Mean % Visual Injury,"[1]; Table 15, 27DAAA, halauxifen-methyl 5, clopyralid-olamine 150, quinclorac 101 g ae/ha, alone or mixed",48.5%
same,Mean % Visual Injury,"[1]; Table 15, 57DAAA, halauxifen-methyl 5, clopyralid-olamine 150, quinclorac 101 g ae/ha, alone or mixed",30.3%
same,Mean % Visual Injury,"[1]; Table 16, 7DAAA, halauxifen-methyl 5 g ae/ha, alone or plus isoxadifen-ethyl 5 g ae/ha",0.8%
same,Mean % Visual Injury,"[1]; Table 16, 15DAAA, halauxifen-methyl 5 g ae/ha, alone or plus isoxadifen-ethyl 5 g ae/ha",50.5%
same,Mean % Visual Injury,"[1]; Table 16, 27DAAA, halauxifen-methyl 5 g ae/ha, alone or plus isoxadifen-ethyl 5 g ae/ha",48.5%
same,Mean % Visual Injury,"[1]; Table 16, 57DAAA, halauxifen-methyl 5 g ae/ha, alone or plus isoxadifen-ethyl 5 g ae/ha",30.3%
same,Mean % Visual Injury,"[1]; Table 17, 7DAAA, halauxifen-methyl 5, clopyralid-olamine 150 g ae/ha alone, or both mixed with isoxadifen-ethyl 5 g ae/ha",0.8%
same,Mean % Visual Injury,"[1]; Table 17, 15DAAA, halauxifen-methyl 5, clopyralid-olamine 150 g ae/ha alone, or both mixed with isoxadifen-ethyl 5 g ae/ha",50.5%
same,Mean % Visual Injury,"[1]; Table 17, 27DAAA, halauxifen-methyl 5, clopyralid-olamine 150 g ae/ha alone, or both mixed with isoxadifen-ethyl 5 g ae/ha",48.5%
same,Mean % Visual Injury,"[1]; Table 17, 57DAAA, halauxifen-methyl 5, clopyralid-olamine 150 g ae/ha alone, or both mixed with isoxadifen-ethyl 5 g ae/ha",30.3%
same,Mean % Visual Injury,"[1]; Table 18, 8DAAA, halauxifen-methyl 5, clopyralid-olamine 150 g ae/ha, alone or mixed",10%
same,Mean % Visual Injury,"[1]; Table 18, 14DAAA, halauxifen-methyl 5, clopyralid-olamine 150 g ae/ha, alone or mixed",24%
same,Mean % Visual Injury,"[1]; Table 18, 40DAAA, halauxifen-methyl 5, clopyralid-olamine 150 g ae/ha, alone or mixed",7%
same,Mean % Visual Injury,"[1]; Table 18, 81DAAA, halauxifen-methyl 5, clopyralid-olamine 150 g ae/ha, alone or mixed",6%
same,Mean % Visual Injury,"[1]; Table 19, 8DAAA, halauxifen-methyl 5, clopyralid-olamine 150 g ae/ha alone, or both mixed with isoxadifen-ethyl 20 g ae/ha",10%
same,Mean % Visual Injury,"[1]; Table 19, 14DAAA, halauxifen-methyl 5, clopyralid-olamine 150 g ae/ha alone, or both mixed with isoxadifen-ethyl 20 g ae/ha",24%
same,Mean % Visual Injury,"[1]; Table 19, 40DAAA, halauxifen-methyl 5, clopyralid-olamine 150 g ae/ha alone, or both mixed with isoxadifen-ethyl 20 g ae/ha",7%
same,Mean % Visual Injury,"[1]; Table 19, 81DAAA, halauxifen-methyl 5, clopyralid-olamine 150 g ae/ha alone, or both mixed with isoxadifen-ethyl 20 g ae/ha",6%
same,Mean % Visual Injury,"[1]; Table 21, 8DAAA, halauxifen-methyl 5, quinclorac 101 g ae/ha, alone or mixed",10%
same,Mean % Visual Injury,"[1]; Table 21, 14DAAA, halauxifen-methyl 5, quinclorac 101 g ae/ha, alone or mixed",24%
same,Mean % Visual Injury,"[1]; Table 21, 40DAAA, halauxifen-methyl 5, quinclorac 101 g ae/ha, alone or mixed",7%
same,Mean % Visual Injury,"[1]; Table 21, 81DAAA, halauxifen-methyl 5, quinclorac 101 g ae/ha, alone or mixed",6%
same,Mean % Visual Injury,"[1]; Table 22, 8DAAA, halauxifen-methyl 5, clopyralid-olamine 150, quinclorac 101 g ae/ha, alone or mixed",10%
same,Mean % Visual Injury,"[1]; Table 22, 14DAAA, halauxifen-methyl 5, clopyralid-olamine 150, quinclorac 101 g ae/ha, alone or mixed",24%
same,Mean % Visual Injury,"[1]; Table 22, 40DAAA, halauxifen-methyl 5, clopyralid-olamine 150, quinclorac 101 g ae/ha, alone or mixed",7%
same,Mean % Visual Injury,"[1]; Table 22, 81DAAA, halauxifen-methyl 5, clopyralid-olamine 150, quinclorac 101 g ae/ha, alone or mixed",6%
same,Mean % Visual Injury,"[1]; Table 23, 7DAAA, halauxifen-methyl 5, clopyralid-olamine 150 g ae/ha, alone or mixed",2.5%
same,Mean % Visual Injury,"[1]; Table 23, 17DAAA, halauxifen-methyl 5, clopyralid-olamine 150 g ae/ha, alone or mixed",3.0%
same,Mean % Visual Injury,"[1]; Table 23, 49DAAA, halauxifen-methyl 5, clopyralid-olamine 150 g ae/ha, alone or mixed",2.5%
same,Mean % Visual Injury,"[1]; Table 24, 7DAAA, halauxifen-methyl 5, clopyralid-olamine 150 g ae/ha alone, or both mixed with isoxadifen-ethyl 20 g ae/ha",2.5%
same,Mean % Visual Injury,"[1]; Table 24, 17DAAA, halauxifen-methyl 5, clopyralid-olamine 150 g ae/ha alone, or both mixed with isoxadifen-ethyl 20 g ae/ha",3.0%
same,Mean % Visual Growth Inhibition,"[1]; Trial 1, 16DAA1, halauxifen-methyl 2.5, clopyralid-olamine 150 g ae/ha, alone or mixed",1.5%
same,Mean % Visual Growth Inhibition,"[1]; Trial 1, 30DAA1, halauxifen-methyl 2.5, clopyralid-olamine 150 g ae/ha, alone or mixed",3.3%
same,Mean % Visual Growth Inhibition,"[1]; Trial 1, 58DAA1, halauxifen-methyl 2.5, clopyralid-olamine 150 g ae/ha, alone or mixed",1.0%
same,Mean % Visual Growth Inhibition,"[1]; Trial 2, 32DAA1, halauxifen-methyl 0.62, clopyralid-olamine 150 g ae/ha, alone or mixed",1.0%
same,Mean % Visual Growth Inhibition,"[1]; Trial 2, 32DAA1, halauxifen-methyl 1.25, clopyralid-olamine 150 g ae/ha, alone or mixed",3.8%
same,Mean % Visual Growth Inhibition,"[1]; Trial 2, 32DAA1, halauxifen-methyl 2.5, clopyralid-olamine 150 g ae/ha, alone or mixed",8.0%
same,Mean % Visual Growth Inhibition,"[1]; Trial 2, 49DAA1, halauxifen-methyl 0.62, clopyralid-olamine 150 g ae/ha, alone or mixed",0.3%
same,Mean % Visual Growth Inhibition,"[1]; Trial 2, 49DAA1, halauxifen-methyl 1.25, clopyralid-olamine 150 g ae/ha, alone or mixed",2.3%
same,Mean % Visual Growth Inhibition,"[1]; Trial 2, 49DAA1, halauxifen-methyl 2.5, clopyralid-olamine 150 g ae/ha, alone or mixed",2.5%
same,Mean % Visual Growth Inhibition,"[1]; Trial 3, 8DAA1, halauxifen-methyl 5, clopyralid-olamine 150 g ae/ha, alone or mixed, line r23",2.5%
same,Mean % Visual Growth Inhibition,"[1]; Trial 3, 8DAA1, halauxifen-methyl 5, clopyralid-olamine 150 g ae/ha, alone or mixed, line r25",1.5%
same,Mean % Visual Growth Inhibition,"[1]; Trial 3, 8DAA1, halauxifen-methyl 10, clopyralid-olamine 150 g ae/ha, alone or mixed, line r22",3.3%
same,Mean % Visual Growth Inhibition,"[1]; Trial 3, 8DAA1, halauxifen-methyl 10, clopyralid-olamine 150 g ae/ha, alone or mixed, line r24",2.3%
same,Mean % Visual Growth Inhibition,"[1]; Trial 3, 17DAA1, halauxifen-methyl 5, clopyralid-olamine 150 g ae/ha, alone or mixed, line r27",1.3%
same,Mean % Visual Growth Inhibition,"[1]; Trial 3, 17DAA1, halauxifen-methyl 5, clopyralid-olamine 150 g ae/ha, alone or mixed, line r29",1.5%
same,Mean % Visual Growth Inhibition,"[1]; Trial 3, 17DAA1, halauxifen-methyl 10, clopyralid-olamine 150 g ae/ha, alone or mixed, line r26",29.5%
same,Mean % Visual Growth Inhibition,"[1]; Trial 3, 17DAA1, halauxifen-methyl 10, clopyralid-olamine 150 g ae/ha, alone or mixed, line r28",2.8%
same,Mean % Visual Growth Inhibition,"[1]; Trial 3, 35DAA1, halauxifen-methyl 10, clopyralid-olamine 150 g ae/ha, alone or mixed",0.8%
same,Mean % Visual Growth Inhibition,"[1]; Trial 3, 48DAA1, halauxifen-methyl 5, clopyralid-olamine 150 g ae/ha, alone or mixed, line r31",1.8%
same,Mean % Visual Growth Inhibition,"[1]; Trial 3, 48DAA1, halauxifen-methyl 5, clopyralid-olamine 150 g ae/ha, alone or mixed, line r32",1.5%
same,Mean % Visual Growth Inhibition,"[1]; Trial 4, 13DAA1, halauxifen-methyl 10, clopyralid-olamine 150 g ae/ha, alone or mixed, line r33",57.5%
same,Mean % Visual Growth Inhibition,"[1]; Trial 4, 13DAA1, halauxifen-methyl 10, clopyralid-olamine 150 g ae/ha, alone or mixed, line r34",31.3%
same,Mean % Visual Growth Inhibition,"[1]; Trial 5, 7DAA1, halauxifen-methyl 0.62, clopyralid-olamine 150 g ae/ha, alone or mixed",1.0%
same,Mean % Visual Growth Inhibition,"[1]; Trial 5, 7DAA1, halauxifen-methyl 1.25, clopyralid-olamine 150 g ae/ha, alone or mixed",1.5%
same,Mean % Visual Growth Inhibition,"[1]; Trial 5, 7DAA1, halauxifen-methyl 2.5, clopyralid-olamine 150 g ae/ha, alone or mixed",1.5%
same,Mean % Visual Growth Inhibition,"[1]; Trial 5, 7DAA1, halauxifen-methyl 5, clopyralid-olamine 150 g ae/ha, alone or mixed",2.0%
same,Mean % Visual Growth Inhibition,"[1]; Trial 6, 33DAA1, halauxifen-methyl 5, clopyralid-olamine 150 g ae/ha, alone or mixed",4.5%
same,Mean % Visual Growth Inhibition,"[1]; Trial 7, 8DAA1, halauxifen-methyl 5, clopyralid-olamine 150 g ae/ha, alone or mixed",8.0%
same,Mean % Visual Growth Inhibition,"[1]; Trial 7, 15DAA1, halauxifen-methyl 0.62, clopyralid-olamine 150 g ae/ha, alone or mixed",2.5%
same,Mean % Visual Growth Inhibition,"[1]; Trial 7, 15DAA1, halauxifen-methyl 5, clopyralid-olamine 150 g ae/ha, alone or mixed",15.5%
same,Mean % Visual Growth Inhibition,"[1]; Trial 8, 7DAA1, halauxifen-methyl 5, clopyralid-olamine 150 g ae/ha, alone or mixed",7.5%
same,Mean % Visual Growth Inhibition,"[1]; Trial 8, 7DAA1, halauxifen-methyl 10, clopyralid-olamine 150 g ae/ha, alone or mixed, line r44",9.0%
same,Mean % Visual Growth Inhibition,"[1]; Trial 8, 7DAA1, halauxifen-methyl 10, clopyralid-olamine 150 g ae/ha, alone or mixed, line r45",3.5%
same,Mean % Visual Growth Inhibition,"[1]; Trial 8, 7DAA1, halauxifen-methyl 10, clopyralid-olamine 150 g ae/ha, alone or mixed, line r46",2.0%
same,Mean % Visual Growth Inhibition,"[1]; Trial 8, 7DAA1, halauxifen-methyl 10, clopyralid-olamine 150 g ae/ha, alone or mixed, line r47",1.5%
same,Mean % Visual Growth Inhibition,"[1]; Trial 8, 15DAA1, halauxifen-methyl 5, clopyralid-olamine 150 g ae/ha, alone or mixed",20.0%
same,Mean % Visual Growth Inhibition,"[1]; Trial 8, 15DAA1, halauxifen-methyl 10, clopyralid-olamine 150 g ae/ha, alone or mixed, line r49",6.0%
same,Mean % Visual Growth Inhibition,"[1]; Trial 8, 15DAA1, halauxifen-methyl 10, clopyralid-olamine 150 g ae/ha, alone or mixed, line r50",2.0%
same,Mean % Visual Growth Inhibition,"[1]; Trial 9, 23DAA1, halauxifen-methyl 2.5, clopyralid-olamine 150 g ae/ha, alone or mixed",35.0%
same,Mean % Visual Growth Inhibition,"[1]; Trial 9, 23DAA1, halauxifen-methyl 5, clopyralid-olamine 150 g ae/ha, alone or mixed",50.0%
same,Mean % Visual Growth Inhibition,"[1]; Trial 9, 33DAA1, halauxifen-methyl 5, clopyralid-olamine 150 g ae/ha, alone or mixed",25.0%
same,Mean % Visual Growth Inhibition,"[1]; Trial 9, 59DAA1, halauxifen-methyl 5, clopyralid-olamine 150 g ae/ha, alone or mixed",6.3%
same,Mean % Visual Growth Inhibition,"[1]; Trial 10, 17DAA1, halauxifen-methyl 5, clopyralid-olamine 100 g ae/ha, alone or mixed",46.7%
same,Mean % Visual Growth Inhibition,"[1]; Trial 10, 17DAA1, halauxifen-methyl 5, clopyralid-olamine 150 g ae/ha, alone or mixed",46.7%
same,Mean % Visual Growth Inhibition,"[1]; Trial 10, 17DAA1, halauxifen-methyl 5, clopyralid-olamine 200 g ae/ha, alone or mixed",46.7%
same,Mean % Visual Growth Inhibition,"[1]; Trial 10, 27DAA1, halauxifen-methyl 5, clopyralid-olamine 150 g ae/ha, alone or mixed",16.7%
same,Mean % Visual Growth Inhibition,"[1]; Trial 10, 27DAA1, halauxifen-methyl 5, clopyralid-olamine 200 g ae/ha, alone or mixed",16.7%
same,Mean % Visual Growth Inhibition,"[1]; Trial 11, 7DAA1, halauxifen-methyl 5, clopyralid-olamine 150 g ae/ha, alone or mixed",1.3%
same,Mean % Visual Growth Inhibition,"[1]; Trial 11, 15DAA1, halauxifen-methyl 0.62, clopyralid-olamine 150 g ae/ha, alone or mixed",2.0%
same,Mean % Visual Growth Inhibition,"[1]; Trial 11, 15DAA1, halauxifen-methyl 1.25, clopyralid-olamine 150 g ae/ha, alone or mixed",6.5%
same,Mean % Visual Growth Inhibition,"[1]; Trial 12, 15DAA1, halauxifen-methyl 10, clopyralid-olamine 150 g ae/ha, alone or mixed",25.0%
same,Mean % Visual Growth Inhibition,"[1]; Trial 12, 27DAA1, halauxifen-methyl 5, clopyralid-olamine 150 g ae/ha, alone or mixed",5.8%
same,Mean % Visual Injury,"[2]; 6DAA1, halauxifen-methyl 5, clopyralid-olamine 120 g ae/ha",1%
same,Mean % Visual Injury,"[2]; 7DAA1, halauxifen-methyl 5, clopyralid-olamine 120 g ae/ha",1%
same,Mean % Visual Injury,"[2]; 19DAA1, halauxifen-methyl 5, clopyralid-olamine 120 g ae/ha",1%
same,Mean % Visual Growth Inhibition,"[2]; 85DAA1, 5 g ae/ha alone",5.0%
same,Mean % Visual Deformation,"[2]; Trial 1, 27DAA1, halauxifen-methyl 5, clopyralid-olamine 120 g ae/ha",0%
same,Mean % Visual Deformation,"[2]; Trial 2, 6DAA1, halauxifen-methyl 5, clopyralid-olamine 120 g ae/ha",1%
same,Mean % Visual Deformation,"[2]; Trial 2, 7DAA1, halauxifen-methyl 5, clopyralid-olamine 120 g ae/ha",1%
